Where a chain is given by its changes, count along the chain named. pIC50: −log10 of the molar value.
How the values were obtained:
L302A mutant AhR = biological target: T1, L302A mutant AhR (Mus musculus, UniProt P30561, L302A); assay: AhR DNA binding (gel retardation) assay, L302A mutant AhR; format: biochemical; conditions: L302A mutation; single maximal ligand concentration; in words
T1 construct: made in house; host or cells: in vitro transcription/translation (rabbit reticulocyte lysate)
T1 sequence (P30561 10-848 L302A): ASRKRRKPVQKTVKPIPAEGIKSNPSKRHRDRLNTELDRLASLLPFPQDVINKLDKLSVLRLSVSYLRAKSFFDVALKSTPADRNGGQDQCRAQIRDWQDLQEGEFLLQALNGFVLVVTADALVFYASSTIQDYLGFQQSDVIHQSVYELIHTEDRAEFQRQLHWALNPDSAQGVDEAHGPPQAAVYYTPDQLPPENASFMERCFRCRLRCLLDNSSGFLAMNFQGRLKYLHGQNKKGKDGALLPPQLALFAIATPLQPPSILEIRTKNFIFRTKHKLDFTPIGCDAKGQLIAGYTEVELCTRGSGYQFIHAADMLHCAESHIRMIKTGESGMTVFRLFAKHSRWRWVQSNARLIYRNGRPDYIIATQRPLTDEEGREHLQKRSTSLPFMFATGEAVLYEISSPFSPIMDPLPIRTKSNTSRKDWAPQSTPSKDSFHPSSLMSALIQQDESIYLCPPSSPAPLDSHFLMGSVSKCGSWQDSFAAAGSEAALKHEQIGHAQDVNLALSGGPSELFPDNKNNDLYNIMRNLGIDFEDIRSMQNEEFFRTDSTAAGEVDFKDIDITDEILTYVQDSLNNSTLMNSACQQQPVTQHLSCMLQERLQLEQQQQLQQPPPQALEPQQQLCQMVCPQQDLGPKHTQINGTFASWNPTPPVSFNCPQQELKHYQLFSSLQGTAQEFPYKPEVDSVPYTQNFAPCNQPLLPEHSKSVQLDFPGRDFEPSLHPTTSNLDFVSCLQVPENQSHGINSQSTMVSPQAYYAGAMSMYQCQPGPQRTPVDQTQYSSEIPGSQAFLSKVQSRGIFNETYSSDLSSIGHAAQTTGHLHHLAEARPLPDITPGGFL
Procedure: Wild-type and mutant mAhRs and mARNT were synthesized in vitro in the presence of unlabeled L-methionine, the resulting mAhRs and mARNT translation mixtures and MEDGK (25 mM MOPS (3-(N-morpholino)propanesulfonic acid; pH 7.5), 1 mM EDTA, 1 mM dithiothreitol, 10% (v/v) glycerol, 150 mM KCl) were mixed in a 1:1:8 (v/v/v) ratio and incubated with DMSO (1% final concentration) or the indicated concentration of TCDD or test chemical for 2 hours at room temperature. An aliquot of each incubation was mixed with [^32P]-labeled double-stranded oligonucleotide containing the mouse AhR DNA binding site DRE3 (a dioxin responsive element from the upstream region of the murine Cyp1a1 gene[71]) and protein-DNA complexes resolved by gel retardation analysis as previously described in detail. Gels were visualized using a FLA9000 Fujifilm Imager and protein-DNA complexes quantitated with Fujifilm MultiGauge software. For potency measurements, reactions were incubated with increasing concentrations of the test chemical and the chemical concentration producing half maximal AhR:ARNT:DRE complex formation (EC50) determined.

S359A mutant AhR = biological target: T2, S359A mutant AhR (Mus musculus, UniProt P30561, S359A); assay: [3H]TCDD competitive ligand binding, S359A mutant AhR; conditions: for pIC50: Table S6, AhR mutant S359A
T2 construct: made in house; host or cells: in vitro, Promega TNT Quick rabbit reticulocyte lysate
T2 sequence (P30561 10-848 S359A): T1 sequence (P30561 10-848 L302A) with A293L, S350A
Procedure: The mouse AhR (mAhR) and ARNT (mARNT) expression plasmids, mβAhR/pcDNA3 and mβArnt/pcDNA3, have been previously described. Point mutations of mβAhR/pcDNA3 were carried out using the QuikChange Lightning Mutagenesis Kit (Agilent Technologies) and all constructs were verified by sequencing.
[^3H]TCDD specific binding to wild-type or mutant mAhRs synthesized in vitro using the Promega TNT Quick coupled transcription/translation rabbit reticulocyte lysate kit (Madison, WI) was carried out as previously described. [^3H]TCDD specific binding was determined by subtracting the amount of [^3H]TCDD bound to unprogrammed lysate (nonspecific binding) from the total amount of [^3H]TCDD binding to lysate containing in vitro expressed AhR. The amount of [^3H]TCDD specific binding remaining in the presence of the indicated competitor chemical was expressed as a percent of the total [^3H]TCDD specific binding. The relative binding affinity (IC50) of each chemical was determined from concentration-dependent competitive inhibition curves obtained using [^3H]TCDD and increasing concentrations of each test chemical and the mean IC50 value was determined using three-parameter non-linear regression.

SMILES	ligand-stimulated AhR DNA binding (L302A mutant AhR)	change of relative binding affinity versus wild-type AhR (S359A mutant AhR; S359A substitution, in words)	pIC50 (S359A mutant AhR)
Clc1cc2oc3cc(Cl)c(Cl)cc3c2cc1Cl [TCDF, 2,3,7,8-tetrachlorodibenzofuran]	eliminated or greatly reduced	–	–
c1ccc2c(c1)cc1ccc3cccc4ccc2c1c34 [BaP, Benzo(a)pyrene]	eliminated or greatly reduced	–	–
O=Cc1c2[nH]c3ccccc3c2cc2[nH]c3ccccc3c12 [FICZ, 6-formylindolo[3,2-b]carbazole]	–	decreased binding	8.39
O=c1cc(-c2ccccc2)oc2ccc3ccccc3c12 [BNF]	–	–	7.33
Clc1cc2c(cc1Cl)Oc1cc(Cl)c(Cl)cc1O2 [TCDD, 2,3,7,8-tetrachlorodibenzo-p-dioxin]	eliminated or greatly reduced	–	–

Reference: PMC6650409, “Modeling the binding of diverse ligands within the Ah receptor ligand binding domain” (Scientific Reports, 2019)
